Organism: Rattus norvegicus
Experiment: DrugMatrix - Regimen: Daily Repeat
Format: toxicity, organism-based, Sprague-Dawley
Design: regimen Daily Repeat, gender Male, age 6-8 weeks
Details: in vivo, po, route oral GAVAGE, vehicle .5 % CMC; for BASOPHIL / EOSINOPHIL / ERYTHROCYTE COUNT / HEMATOCRIT / HEMOGLOBIN / LEUKOCYTE COUNT / LYMPHOCYTE / MEAN CORPUSCULAR HEMOGLOBIN / MEAN CORPUSCULAR HEMOGLOBIN CONCENTRATION / MEAN CORPUSCULAR VOLUME / MONOCYTE / NEUTROPHIL / PLATELET COUNT: tissue Blood; for ALANINE AMINOTRANSFERASE / ALBUMIN / ALKALINE PHOSPHATASE / ASPARTATE AMINOTRANSFERASE / BLOOD UREA NITROGEN / CHLORIDE / CHOLESTEROL / CREATINE PHOSPHOKINASE / CREATININE / GLUCOSE / PHOSPHORUS / POTASSIUM / SODIUM / TOTAL BILIRUBIN / TOTAL PROTEIN: tissue Plasma
[1] = 0 mg/kg, 72 h, dose level Control, time 3 day
[2] = 0 mg/kg, 120 h, dose level Control, time 5 day
[3] = 8 mg/kg, 72 h, dose level Low, time 3 day
[4] = 8 mg/kg, 120 h, dose level Low, time 5 day
[5] = 24 mg/kg, 72 h, dose level High, time 3 day
[6] = 24 mg/kg, 120 h, dose level High, time 5 day

Compound: CCc1cccc2c3c([nH]c12)C(CC)(CC(=O)O)OCC3 (stereo not drawn) [ETODOLAC]
- BASOPHIL [1]: 1.52%
- EOSINOPHIL [1]: 0.98%
- ERYTHROCYTE COUNT [1]: 6.96 x10E6/uL
- HEMATOCRIT [1]: 44.65%
- HEMOGLOBIN [1]: 13.62 G/DL
- LEUKOCYTE COUNT [1]: 9.83 x10E3/uL
- LYMPHOCYTE [1]: 76.48%
- MEAN CORPUSCULAR HEMOGLOBIN [1]: 19.57 pg
- MEAN CORPUSCULAR HEMOGLOBIN CONCENTRATION [1]: 30.47 G/DL
- MEAN CORPUSCULAR VOLUME [1]: 64.22 fL
- MONOCYTE [1]: 2.13%
- NEUTROPHIL [1]: 18.6%
- PLATELET COUNT [1]: 1217.17 x10E3/uL
- ALANINE AMINOTRANSFERASE [1]: 41 u/L
- ALBUMIN [1]: 3.77 G/DL
- ALKALINE PHOSPHATASE [1]: 411.83 u/L
- ASPARTATE AMINOTRANSFERASE [1]: 62.83 u/L
- BLOOD UREA NITROGEN [1]: 15.17 mg/dL
- CHLORIDE [1]: 104.33 MEQ/L
- CHOLESTEROL [1]: 71.17 mg/dL
- CREATINE PHOSPHOKINASE [1]: 123.5 u/L
- CREATININE [1]: 0.55 mg/dL
- GLUCOSE [1]: 182.67 mg/dL
- PHOSPHORUS [1]: 11.23 mg/dL
- POTASSIUM [1]: 7.03 MEQ/L
- SODIUM [1]: 148 MEQ/L
- TOTAL BILIRUBIN [1]: 0.57 mg/dL
- TOTAL PROTEIN [1]: 6.85 G/DL
- BASOPHIL [2]: 1.35%
- EOSINOPHIL [2]: 0.43%
- ERYTHROCYTE COUNT [2]: 6.96 x10E6/uL
- HEMATOCRIT [2]: 44.35%
- HEMOGLOBIN [2]: 13.98 G/DL
- LEUKOCYTE COUNT [2]: 9.45 x10E3/uL
- LYMPHOCYTE [2]: 80.83%
- MEAN CORPUSCULAR HEMOGLOBIN [2]: 20.1 pg
- MEAN CORPUSCULAR HEMOGLOBIN CONCENTRATION [2]: 31.52 G/DL
- MEAN CORPUSCULAR VOLUME [2]: 63.72 fL
- MONOCYTE [2]: 2.37%
- NEUTROPHIL [2]: 14.05%
- PLATELET COUNT [2]: 1298 x10E3/uL
- ALANINE AMINOTRANSFERASE [2]: 42.17 u/L
- ALBUMIN [2]: 3.77 G/DL
- ALKALINE PHOSPHATASE [2]: 419 u/L
- ASPARTATE AMINOTRANSFERASE [2]: 66.67 u/L
- BLOOD UREA NITROGEN [2]: 16.67 mg/dL
- CHLORIDE [2]: 103.17 MEQ/L
- CHOLESTEROL [2]: 66.33 mg/dL
- CREATINE PHOSPHOKINASE [2]: 148.33 u/L
- CREATININE [2]: 0.58 mg/dL
- GLUCOSE [2]: 196.83 mg/dL
- PHOSPHORUS [2]: 11.8 mg/dL
- POTASSIUM [2]: 6.47 MEQ/L
- SODIUM [2]: 148.33 MEQ/L
- TOTAL BILIRUBIN [2]: 0.53 mg/dL
- TOTAL PROTEIN [2]: 6.77 G/DL
- BASOPHIL [3]: 2.87%
- EOSINOPHIL [3]: 0.5%
- ERYTHROCYTE COUNT [3]: 7.29 x10E6/uL
- HEMATOCRIT [3]: 46.3%
- HEMOGLOBIN [3]: 14.43 G/DL
- LEUKOCYTE COUNT [3]: 10.83 x10E3/uL
- LYMPHOCYTE [3]: 74.43%
- MEAN CORPUSCULAR HEMOGLOBIN [3]: 19.83 pg
- MEAN CORPUSCULAR HEMOGLOBIN CONCENTRATION [3]: 31.17 G/DL
- MEAN CORPUSCULAR VOLUME [3]: 63.57 fL
- MONOCYTE [3]: 2.53%
- NEUTROPHIL [3]: 19.13%
- PLATELET COUNT [3]: 1601 x10E3/uL
- ALANINE AMINOTRANSFERASE [3]: 44.33 u/L
- ALBUMIN [3]: 3.8 G/DL
- ALKALINE PHOSPHATASE [3]: 358.67 u/L
- ASPARTATE AMINOTRANSFERASE [3]: 64 u/L
- BLOOD UREA NITROGEN [3]: 12.33 mg/dL
- CHLORIDE [3]: 102.67 MEQ/L
- CHOLESTEROL [3]: 62 mg/dL
- CREATINE PHOSPHOKINASE [3]: 129.67 u/L
- CREATININE [3]: 0.57 mg/dL
- GLUCOSE [3]: 182.33 mg/dL
- PHOSPHORUS [3]: 13.07 mg/dL
- POTASSIUM [3]: 7.23 MEQ/L
- SODIUM [3]: 148.67 MEQ/L
- TOTAL BILIRUBIN [3]: 0.37 mg/dL
- TOTAL PROTEIN [3]: 6.7 G/DL
- BASOPHIL [4]: 2.2%
- EOSINOPHIL [4]: 0.17%
- ERYTHROCYTE COUNT [4]: 7.21 x10E6/uL
- HEMATOCRIT [4]: 45.2%
- HEMOGLOBIN [4]: 14.13 G/DL
- LEUKOCYTE COUNT [4]: 12.43 x10E3/uL
- LYMPHOCYTE [4]: 78.07%
- MEAN CORPUSCULAR HEMOGLOBIN [4]: 19.67 pg
- MEAN CORPUSCULAR HEMOGLOBIN CONCENTRATION [4]: 31.37 G/DL
- MEAN CORPUSCULAR VOLUME [4]: 62.7 fL
- MONOCYTE [4]: 3.4%
- NEUTROPHIL [4]: 15.23%
- PLATELET COUNT [4]: 1492.67 x10E3/uL
- ALANINE AMINOTRANSFERASE [4]: 41.67 u/L
- ALBUMIN [4]: 3.8 G/DL
- ALKALINE PHOSPHATASE [4]: 376 u/L
- ASPARTATE AMINOTRANSFERASE [4]: 62.67 u/L
- BLOOD UREA NITROGEN [4]: 16 mg/dL
- CHLORIDE [4]: 102 MEQ/L
- CHOLESTEROL [4]: 67.33 mg/dL
- CREATINE PHOSPHOKINASE [4]: 145 u/L
- CREATININE [4]: 0.6 mg/dL
- GLUCOSE [4]: 181.33 mg/dL
- PHOSPHORUS [4]: 12.37 mg/dL
- POTASSIUM [4]: 6.73 MEQ/L
- SODIUM [4]: 149 MEQ/L
- TOTAL BILIRUBIN [4]: 0.33 mg/dL
- TOTAL PROTEIN [4]: 6.57 G/DL
- BASOPHIL [5]: 1.07%
- EOSINOPHIL [5]: 0.27%
- ERYTHROCYTE COUNT [5]: 5.61 x10E6/uL
- HEMATOCRIT [5]: 34.27%
- HEMOGLOBIN [5]: 10.67 G/DL
- LEUKOCYTE COUNT [5]: 17.3 x10E3/uL
- LYMPHOCYTE [5]: 66.33%
- MEAN CORPUSCULAR HEMOGLOBIN [5]: 19 pg
- MEAN CORPUSCULAR HEMOGLOBIN CONCENTRATION [5]: 31.13 G/DL
- MEAN CORPUSCULAR VOLUME [5]: 61.13 fL
- MONOCYTE [5]: 3.5%
- NEUTROPHIL [5]: 27.87%
- PLATELET COUNT [5]: 1221.33 x10E3/uL
- ALANINE AMINOTRANSFERASE [5]: 31 u/L
- ALBUMIN [5]: 2.83 G/DL
- ALKALINE PHOSPHATASE [5]: 157 u/L
- ASPARTATE AMINOTRANSFERASE [5]: 47.67 u/L
- BLOOD UREA NITROGEN [5]: 12.67 mg/dL
- CHLORIDE [5]: 105 MEQ/L
- CHOLESTEROL [5]: 58.67 mg/dL
- CREATINE PHOSPHOKINASE [5]: 142.33 u/L
- CREATININE [5]: 0.47 mg/dL
- GLUCOSE [5]: 168 mg/dL
- PHOSPHORUS [5]: 11.97 mg/dL
- POTASSIUM [5]: 6.27 MEQ/L
- SODIUM [5]: 148.33 MEQ/L
- TOTAL BILIRUBIN [5]: 0.2 mg/dL
- TOTAL PROTEIN [5]: 5 G/DL
- BASOPHIL [6]: 1.2%
- EOSINOPHIL [6]: 0.25%
- ERYTHROCYTE COUNT [6]: 4.38 x10E6/uL
- HEMATOCRIT [6]: 26.95%
- HEMOGLOBIN [6]: 8.35 G/DL
- LEUKOCYTE COUNT [6]: 3.5 x10E3/uL
- LYMPHOCYTE [6]: 64.7%
- MEAN CORPUSCULAR HEMOGLOBIN [6]: 19.1 pg
- MEAN CORPUSCULAR HEMOGLOBIN CONCENTRATION [6]: 31 G/DL
- MEAN CORPUSCULAR VOLUME [6]: 61.65 fL
- MONOCYTE [6]: 3.45%
- NEUTROPHIL [6]: 24.5%
- PLATELET COUNT [6]: 1541 x10E3/uL
- ALANINE AMINOTRANSFERASE [6]: 27 u/L
- ALBUMIN [6]: 2.6 G/DL
- ALKALINE PHOSPHATASE [6]: 256 u/L
- ASPARTATE AMINOTRANSFERASE [6]: 105 u/L
- BLOOD UREA NITROGEN [6]: 64 mg/dL
- CHLORIDE [6]: 103 MEQ/L
- CHOLESTEROL [6]: 43 mg/dL
- CREATINE PHOSPHOKINASE [6]: 183 u/L
- CREATININE [6]: 0.6 mg/dL
- GLUCOSE [6]: 107 mg/dL
- PHOSPHORUS [6]: 19.1 mg/dL
- POTASSIUM [6]: 9.9 MEQ/L
- SODIUM [6]: 141 MEQ/L
- TOTAL BILIRUBIN [6]: 0.3 mg/dL
- TOTAL PROTEIN [6]: 5.3 G/DL

— ChEMBL document CHEMBL3885881, “DrugMatrix”
